Measurements taken from US9856230B2 (University of Sunderland, priority 2012, dated 2018).

What was measured:
[1] = system: HPV-16 immortalized keratinocyte cell line (CCD-1106 KERTr); assay: cells; type: cell-based; conditions: Homo sapiens; CCD-1106 KERTr keratinocytes; read-out: MTT GI50;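 further: growth inhibition read as spectrophotometric formazan colour from mitochondrial dehydrogenase cleavage of MTT, proportional to viable cell number, modelling psoriatic hyperproliferation, lower values mean stronger antiproliferative activity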
Description: The assay is based on the ability of a mitochondrial dehydrogenase enzyme to cleave the tetrazolium rings of the yellow MTT to form dark blue formazan crystals (MTT reaction scheme). These crystals are mostly impermeable to cell membranes and, consequently, they accumulate in healthy viable cells. The addition of detergent solubilizes the cells, which results in the liberation of purple formazan crystals. The number of viable cells is directly proportional to the level of purple formazan produced. This colour change can be measured by a spectrophotometer enabling quantification of changes in cellular proliferation. Compound activity measured by the MTT assay (or other proliferation related assay) may be given as a GI50 value.
A human papilloma virus-16 (HPV-16) immortalized keratinocyte cell line (CCD-1106 KERTr) was used in the MTT cell viability assay.
Antiproliferative activity is indicated by the MTT GI50 (μM), where a lower value indicates higher activity.

[2] = molecular target: T1, Trx system (thioredoxin/thioredoxin reductase) (Homo sapiens, UniProt Q16881); assay: Thioredoxin/thioredoxin reductase insulin reduction assay; type: biochemical
T1 sequence (Q16881 151-649 limits assumed): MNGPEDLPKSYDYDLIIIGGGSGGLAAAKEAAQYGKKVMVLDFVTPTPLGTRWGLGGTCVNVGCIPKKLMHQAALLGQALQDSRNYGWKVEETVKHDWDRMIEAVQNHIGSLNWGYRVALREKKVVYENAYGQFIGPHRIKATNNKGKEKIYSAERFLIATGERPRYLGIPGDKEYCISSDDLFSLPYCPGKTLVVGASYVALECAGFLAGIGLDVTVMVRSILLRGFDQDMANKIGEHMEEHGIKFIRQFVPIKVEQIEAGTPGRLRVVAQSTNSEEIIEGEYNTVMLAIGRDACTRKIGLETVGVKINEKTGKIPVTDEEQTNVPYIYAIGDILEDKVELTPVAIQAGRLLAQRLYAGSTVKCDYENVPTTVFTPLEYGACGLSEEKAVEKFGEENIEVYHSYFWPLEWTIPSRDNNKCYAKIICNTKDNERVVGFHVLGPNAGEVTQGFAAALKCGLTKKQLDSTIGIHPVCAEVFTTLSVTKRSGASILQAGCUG
Method: Thioredoxin/thioredoxin reductase inhibition was measured using the insulin reduction assay (Stevens, M. F. G., Pallis, M., Bradshaw, T. D., Westwell, A. D., Grundy, M., Russell, N, “Induction of apoptosis without redox catastrophe by thioredoxin-inhibitory compounds”, Biochem. Pharmacol. (2003) 66, 1695-1705). […] The first part of the assay involves TrxR reducing oxidized Trx via NADPH. The reduced Trx then reduces disulfide bonds in the insulin, leaving exposed thiol groups, as summarized by the Trx reaction scheme.
The addition of dithionitrobenzoic acid (DTNB) to the free thiol groups of the insulin cleaves the disulfide bond in the DTNB which gives rise to a yellow colour (DTNB reaction scheme). The yellow colour is observed under basic conditions due to the conjugation of electrons between the thiolate anion and the nitro group of thionitrobenzoic acid (TNB). The level of thioredoxin/thioredoxin reductase inhibitory activity is […] proportional to the intensity of the yellow colour.
Addition of DTNB to reduced insulin produces thionitrobenzoic acid (TNB) and a mixed insulin disulfide. DTNB has very little absorbance, but under mild basic conditions TNB forms an anion that gives an intense yellow colour at 412 nm.
Synthesized compounds were tested for thioredoxin/thioredoxin reductase activity using the thioredoxin/thioredoxin reductase insulin assay described above under the heading “Assays”. The compounds were also tested for antiproliferative activity using the MTT assay described above under the heading “Assays”. Theoretical C log P values for the compounds were calculated using ChemDraw. The C log P of a compound is the logarithm of the compound's partition coefficient between n-octanol and water log(coctanol/cwater) and represents a measure of the compound's hydrophilicity and hydrophobicity. […]

[3] = system: human T-cells
Description: (§1) To determine if the analogues were causing apoptosis or necrosis, an Annexin V-Pe assay was used. […] The annexin V is attached to a fluorescent probe that is used for detection by flow cytometry. […] The assay is also used in conjugation with 7-aminoactinomycin D (7-AAD). […] As the plasma membrane becomes increasingly permeable, 7-AAD can move readily across the cell membrane and bind to cellular DNA, thereby providing a way of identifying cells that have lost their membrane integrity; however, when the cell is viable or undergoing early stages of apoptosis, it is impermeable to 7-AAD.

[4] = in vitro; conditions: human, Viable Cells (%)
Description: as §1

[5] = system: human T-cells; assay: CFSE proliferation assay; type: cell-based; conditions: 2000 ng per mL
Description: Carboxyfluorescein diacetate succinimidyl ester (56a) (CFSE) is a cell permeable compound which readily enters the cell, upon which, the ester group is cleaved by esterases to produce a fluorescent compound (known as carboxyfluorescein succinimidyl ester (56b)) that is less cell permeable (see CFSE reaction scheme). As cells divide, the carboxyfluorescein succinimidyl ester (56b) is split equally between the daughter cells, which results in reduced carboxyfluorescein succinimidyl ester (56b) signal detection with each subsequent cell division (FIG. 2). The attenuation of the signal gives an indication of the proliferative ability of the cells.
For a compound to show good antiproliferative properties in the CFSE assay, the majority of the cells should remain in the parent state (as per division 0 in FIG. 2). […] As cell division occurs, the carboxyfluorescein succinimidyl ester (56b) is split equally between daughter cells, which results in attenuated signal detection.
CFSE labeled T-cells were treated with compound (33f) or control (no compound added). In the control experiment the majority of cells reached the fifth division (proliferation index of 5.62). […] The PI is the sum of the cells in all generations divided by the calculated number of the original parent cells.

[6] = system: human T-cells; assay: Annexin V-Pe assay (apoptosis/necrosis)
Description: as §1

Cc1ccc(S(=O)(=O)Nc2ccc(NC(=O)c3ccco3)cc2NS(=O)(=O)c2ccc(C)cc2)cc1 [Compound (33f), N-(3,4-bis-(toluene-4-sulfonylamino)phenyl)-2-furamide]
GI50 [1]: 10.8 µM | inhibition at 500 µM ([2]; compound at 500 μM, read-out: Inhib. (%) Trx Syst. at 500 μM): 93.7% | IC50 ([2]; insulin reduction assay, read-out: Trx System IC50): 37 µM | Viable Cells (%) [3]: 46% | viability [4]: 37% | division state of CFSE labeled T-cells ([5]; control: majority reached the fifth division): the majority of cells remained in the parent state | proliferation index (PI) ([5]; CFSE labeled T-cells, control 5.62): 1.36 | Early Apoptotic Cells (%) ([6]; annexin V positive, 7-AAD negative, control 29): 31% | Late Apoptotic/Necrotic Cells (%) ([6]; stain with both reagents, control 15): 13%
